No end group written: not given here.
What was measured:
[1] = tested on: CRAB 2210186; details: 10% fetal bovine serum, room temperature, 1–6 h, then MIC assay, triplicate
Experimental: (§2) For serum sensitivity experiments, the peptide to be tested was incubated in 10% fetal bovine serum at room temperature for 1–6 h. After deactivation, the MICs of peptides against CRAB 2210186 and MRSA 2210187 were measured using the MIC assay. All experiments were performed in triplicate to ensure reliability.

[2] = tested on: CRAB; test: Biofilm formation inhibition assay (crystal violet); assay type: cell-based, carbapenem-resistant Acinetobacter baumannii; details: 1/2 × MIC, 24 h, OD570
Experimental: The crystal violet staining method ([66]) was used to determine the inhibitory activity of the compounds against the biofilm formation of CRAB. The steps were as follows: prepare a bacterial solution (10^6 CFU mL^−1), mix it with different final concentrations of the compound (1/2 × MIC, 1 × MIC, 2 × MIC, and 4 × MIC), and culture it for 24 h. After discarding the supernatant, wash with PBS, add anhydrous methanol to fix the biofilm, and then stain it with crystal violet for 60 min after drying. After washing, dissolve the biofilm with 33% glacial acetic acid, and measure OD570. Three parallel experiments were performed, and the biofilm formation inhibition rate was calculated by the following formula:
(3) Biofilm formation inhibition rate (%)=(1−OD(sample)− OD(blank)/OD(negative)− OD(blank))×100%

[3] = tested on: CRAB; test: MBC determination, MBC/MIC ratio; assay type: cell-based, carbapenem-resistant Acinetobacter baumannii; details: MBC/MIC ≤4 is considered bactericidal
Experimental: The MBC was determined using the microdilution broth method described above for MIC determination. After identifying the clear wells (no growth), 10 µL of the liquid from these wells was transferred and spread on a nutrient agar plate. The plate was incubated at 37°C for 18–24 h. […] The lowest concentration with no visible growth was considered the MBC.

[4] = tested on: S. aureus ATCC25923; assay type: cell-based, Staphylococcus aureus
Experimental: (§1) The MIC of all peptides was determined using the microdilution broth method in a 96-well plate. Peptides were dissolved in the DMSO with an initial concentration of 12,800 µg mL^−1. And cells of eight strains were separately suspended in the MHB at a density of approximately 10^5 CFU mL^−1. In the first column of the 96-well plate, 16 µL of peptide and 184 µL of MHB were added to each well to achieve a final concentration of 1,024 µg mL^−1. One-hundred microliters of MHB was added to each of the remaining wells. Then the first column of liquid was mixed well and diluted to the 12th column using the twofold dilution method. One-hundred microliters of prepared bacterial solution was added to all wells, and the 96-well plate was incubated at 37°C for 18–24 h. The MIC was defined as the concentration of the peptide in the well just preceding the first well showing visible turbidity. All experiments were performed in triplicate to ensure reliability.

[5] = tested on: all eight bacterial strains; assay type: cell-based, gram-positive and gram-negative bacteria; details: judged from MICs on eight strains
Experimental: as §1

[6] = tested on: E. coli ATCC25922; assay type: cell-based, Escherichia coli
Experimental: as §1

[7] = tested on: MRSA 2210187; details: 10% fetal bovine serum, room temperature, 1–6 h, then MIC assay, triplicate
Experimental: as §2

[8] = tested on: MRSA; test: Time-kill curve; assay type: cell-based, methicillin-resistant Staphylococcus aureus; details: ~10^5 CFU mL^−1 in MH broth
Experimental: Bacteria in the logarithmic growth phase were diluted to approximately 10^5 CFU mL^−1 in MH broth and treated with peptides, polymyxin B, or vancomycin at final concentrations of 1/2 × MIC, 1 × MIC, 2 × MIC, and 4 × MIC. After the addition of the test compound, samples were taken at 0, 3, 6, 9, 12, and 24 h and serially diluted. Subsequently, 5 µL of the diluted samples were spread on agar plates and incubated at 37°C for 20 h. The bacterial concentration CFU mL^−1 at the corresponding time point of each sample was calculated based on the number of colonies on the agar plate, and the log10 (CFU mL^−1) was plotted against time (h).

[9] = tested on: HEK293 cells; assay type: cell-based
Experimental: Cytotoxicity of AMPs was determined using the Cell Counting Kit-8. HEK293 cells, bought from Procell (Wuhan, China), were inoculated in 96-well flat-bottom plates according to 5,000 cells/well in cell culture medium. After 24-h incubation at 37°C with 5% CO2 in atmosphere, medium was replaced with fresh medium and incubated with antimicrobial peptide solutions at various concentrations for 48 h. Cell viability was monitored by adding CCK-8 solution and measuring OD450 after 4 h. Zero-well and control-well were set during this experimental process. All experiments were performed with three independent replicates. The cell survival rate was calculated by the following formula, and the CC50 value of each AMPs was calculated by online tools: https://www.aatbio.com/tools/ic50-calculator. (2) Cell survival rate (%)=OD(AMP)− OD(zero)/OD(control)− OD(zero)×100%

[10] = tested on: CRAB; test: Outer membrane permeability assay (NPN); assay type: cell-based, carbapenem-resistant Acinetobacter baumannii; details: 10^8 CFU mL^−1
Experimental: NPN binds phospholipids in the periplasmic space, so NPN assay was carried out to analyze the effect of AMPs on the outer membrane permeabilization of bacteria ([65]). After CRAB was grown to the exponential phase, bacteria cells were harvested and washed three times in washing buffer of 5 mM glucose and 5 mM HEPES (1:1, pH = 7.2) and then re-adjusted to 10^8 CFU mL^−1 in same buffer. Bacterial suspensions (150 µL/well) were loaded into black-walled, clear-bottom 96-well plates with lids. Following bacterial loading, 50 µL of 10 µM NPN was introduced into each well, with 30-min pre-incubation for CRAB. Post-incubation fluorescence signals were acquired using 350 nm excitation and 420 nm emission wavelengths. Compounds (10 µL) were then administered to achieve 1 × MIC/10 × MIC -equivalent final concentrations in the dye-loaded bacterial suspensions. Real-time fluorescence monitoring was performed with continuous acquisition during the first 10 min, followed by measurements at 10-min intervals. Negative controls received 10 µL sterile water in lieu of antimicrobial peptides while maintaining equivalent pre-incubation conditions. All experimental conditions were executed with three biological replicates.

WLKRILKWIGNKLKW [PL-15]
fold change in MIC after incubation in serum [1]: maximum twofold increase | biofilm formation inhibition [2]: moderate biofilm inhibition | bactericidal classification by MBC/MIC ratio [3]: bactericidal effects | MIC [4]: lower than 11 µg mL^−1 | antimicrobial spectrum [5]: broad-spectrum antimicrobial properties | MIC [6]: lower than 11 µg mL^−1 | fold change in MIC after incubation in serum [7]: maximum twofold increase | time to eliminate MRSA ([8]; 1/2 × MIC): ≤ 6 h | time to complete bacterial eradication of MRSA ([8]; 1 × MIC): ≤ 6 h | time to full bacterial killing of MRSA ([8]; 2 × MIC): ≤ 3 h | time to full bacterial killing of MRSA ([8]; 4 × MIC): ≤ 3 h | log2CC50 (50% cell viability) [9]: ≥ 3 | NPN fluorescence (outer membrane permeability) ([10]; 1 × MIC): marginal increase in fluorescence intensity | NPN fluorescence (outer membrane permeability) ([10]; 10 × MIC): rapid and significant increase in fluorescence intensity
